Measurements from patent US20150148256A1, “BIOLUMINESCENCE IMAGING-BASED SCREENING ASSAY AND INHIBITORS OF ABCG2” (THE JOHNS HOPKINS UNIVERSITY, priority 2008, published 2015).
Where a name gives a salt, the structure may show the parent alone. Read-outs that look alike come from different tables or passages of the source.

Target: T1, ABCG2 (Homo sapiens, UniProt Q9UNQ0)
T1 sequence (Q9UNQ0 1-655): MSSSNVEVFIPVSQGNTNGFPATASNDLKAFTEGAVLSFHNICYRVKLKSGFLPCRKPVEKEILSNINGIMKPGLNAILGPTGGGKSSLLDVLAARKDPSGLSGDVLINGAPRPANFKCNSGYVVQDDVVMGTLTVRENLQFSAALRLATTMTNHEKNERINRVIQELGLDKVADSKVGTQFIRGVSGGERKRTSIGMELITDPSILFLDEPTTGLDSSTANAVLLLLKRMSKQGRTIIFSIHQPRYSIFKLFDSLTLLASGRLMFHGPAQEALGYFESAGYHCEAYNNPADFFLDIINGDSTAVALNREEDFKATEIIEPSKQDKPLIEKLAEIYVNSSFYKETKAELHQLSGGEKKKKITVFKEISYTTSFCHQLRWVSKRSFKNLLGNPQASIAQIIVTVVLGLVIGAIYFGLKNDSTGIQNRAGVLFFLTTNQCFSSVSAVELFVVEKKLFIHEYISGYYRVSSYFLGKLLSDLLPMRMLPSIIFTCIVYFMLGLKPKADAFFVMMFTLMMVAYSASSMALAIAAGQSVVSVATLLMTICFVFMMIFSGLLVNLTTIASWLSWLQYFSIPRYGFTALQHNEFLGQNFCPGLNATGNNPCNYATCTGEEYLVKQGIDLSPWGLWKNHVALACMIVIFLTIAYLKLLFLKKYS
Test: Bioluminescence imaging (BLI) assay in HEK293/ABCG2/fLuc cells
Procedure: HEK293/ABCG2/fLuc cells were plated into 96-well plates at a density of 4×10^4 cells/100 μL per well and were allowed to attach overnight. The following day, 10 μL of each compound or the control solvent was transferred from a compound library in a 96-well, high-throughput format into the wells using a multichannel pipette. […] Images were taken every 5 minutes for ˜1 h. Light output from each well was quantified at the 40 min time point after initiation of imaging, and the signal-to-background (S/B) ratio of the light output from each compound divided by that from the control well was calculated. This S/B ratio serves as an indicator of the potency of ABCG2 inhibition, the mechanism by which BLI signal is enhanced.
Images were taken every 5 min for ˜1 h, and light output from each well at the 40 min time point was chosen for quantification. The SB ratio of the light output from each compound divided by that from the control well was calculated. This ratio was used as an indicator of the potency of ABCG2 inhibition, the mechanism by which BLI signal is enhanced.
The BLI signal-enhancing effect of selected ABCG2 inhibitors was evaluated within the range of 0.001 μM-100 μM, with HEK293/ABCG2/fLuc cells and 50 μg/mL D-luciferin. The data obtained at 40 min after imaging commencement were chosen arbitrarily to be plotted (FIG. 3).

[1] = Table 2, HEK293/ABCG2/fLuc cells, compound approximately 17 μM, ~50 μg/mL D-luciferin, 40 min time point
[2] = Table 4, approximately 17 μM, 40 min time point

| SMILES | Fold (BLI enhancement, S/B ratio over control) (human, 40 min, 17 μM) | also measured |
| --- | --- | --- |
| COc1cc2ncnc(Nc3ccc(F)c(Cl)c3)c2cc1OCCCN1CCOCC1 [gefitinib] | 19.0 fold | Fold (BLI enhancement), known compounds (human, 40 min, 17 μM): 19.0 fold |
| O=c1c(-c2ccc(O)cc2)coc2cc(O)cc(O)c12 [genistein] |  | BLI signal enhancement (human, 40 min, 17 μM): 1.2 fold; fold (BLI enhancement), additional previously known ABCG2 inhibitors (human, 40 min, 17 μM): 1.2 fold |
| CN1C2CCCC1CC(NC(=O)c1nn(C)c3ccccc13)C2 (stereo not drawn) [granisetron hydrochloride] | 2.2 fold |  |
| CC1(C)O[C@@H]2C[C@H]3[C@@H]4CCC5=CC(=O)CC[C@]5(C)[C@@]4(F)[C@@H](O)C[C@]3(C)[C@]2(C(=O)CCl)O1 [halcinonide] | 2.2 fold |  |
| COc1ccc2c3c([nH]c2c1)C(C)=NCC3 [harmaline] |  | Fold (BLI enhancement, S/B ratio over control) [1]: 8.8 fold; Fold (BLI enhancement), previously unknown compounds [2]: 8.8 fold |
| CC1=NCCc2c1[nH]c1cc(O)ccc21.Cl [harmalol hydrochloride] |  | Fold (BLI enhancement, S/B ratio over control) (human): 2.9 fold |
| COc1ccc2c(c1)[nH]c1c(C)nccc12 [harmine] |  | Fold (BLI enhancement), known compounds (human): 8.9 fold; Fold (BLI enhancement, S/B ratio over control) (human): 8.9 fold |
| COc1ccc([C@@H]2CC(=O)c3c(O)cc(O)cc3O2)cc1O [hesperetin] | 5.0 fold | Fold (BLI enhancement), known compounds (human, 40 min, 17 μM): 5.0 fold |
| CCN(CC)CCNc1ccc(CO)c2sc3ccccc3c(=O)c12 [hycanthone] | 2.5 fold |  |
| Cc1cc(O)c2c(=O)c3c(O)cc(O)c4c5c(O)cc(O)c6c(=O)c7c(O)cc(C)c8c1c2c(c34)c(c78)c65 [hypericin] |  | Fold (BLI enhancement, S/B ratio over control) (human): 3.3 fold |
| CCc1c2c(nc3ccc(OC(=O)N4CCC(N5CCCCC5)CC4)cc13)-c1cc3c(c(=O)n1C2)COC(=O)[C@]3(O)CC [irinotecan hydrochloride] | 4.0 fold |  |
| COC(=O)[C@H]1[C@H]2C[C@H]3c4[nH]c5cc(OC)ccc5c4CCN3C[C@H]2C[C@@H](OC(=O)c2cc(OC)c(OC)c(OC)c2)[C@@H]1OC [isoreserpine] | 6.2 fold | Fold (BLI enhancement), previously unknown compounds (human, 40 min, 17 μM): 6.2 fold |
| COc1cc(-c2oc3cc(O)cc(O)c3c(=O)c2O)ccc1O [isorhamnetin] |  | Fold (BLI enhancement, S/B ratio over control) [1]: 7.0 fold; Fold (BLI enhancement), previously unknown compounds [2]: 7.0 fold |
| COc1ccc(C(=O)NCc2ccc(OCCN(C)C)cc2)cc1OC [itopride hydrochloride] | 2.2 fold |  |
| O=c1c(O)c(-c2ccc(O)cc2)oc2cc(O)cc(O)c12 [kaempferol] | 4.3 fold |  |
| COc1c2occc2c(OC)c2c(=O)cc(C)oc12 [khellin] | 3.4 fold |  |
| CC[C@@H](C(=O)[C@@H](C)[C@@H](O)[C@H](C)CCc1ccc(C)c(O)c1C(=O)O)[C@H]1O[C@](CC)([C@H]2CC[C@](O)(CC)[C@H](C)O2)C[C@@H]1C [lasalocid sodium] |  | Fold (BLI enhancement, S/B ratio over control) (human): 2.7 fold |
| COc1ccc(CN2CCN(C(c3ccc(F)cc3)c3ccc(F)cc3)CC2)c(OC)c1OC [lomerizine hydrochloride] | 4.0 fold |  |
| CCN(CCCCOC(=O)c1ccc(OC)c(OC)c1)C(C)Cc1ccc(OC)cc1 (stereo not drawn) [mebeverine hydrochloride] | 3.2 fold |  |
| CC(=O)[C@H]1CC[C@H]2[C@@H]3C[C@H](C)C4=CC(=O)CC[C@]4(C)[C@H]3[C@@H](O)C[C@]12C [medrysone] | 2.3 fold |  |
| CC(=O)O[C@]1(C(C)=O)CC[C@H]2[C@@H]3C=C(C)C4=CC(=O)CC[C@]4(C)[C@H]3CC[C@@]21C [megestrol acetate] | 2.1 fold |  |
| NCCS [mercaptamine hydrochloride] | 2.2 fold |  |
| Cc1cc(C(C)(C)CC(C)(C)C)ccc1OCCOCC[N+](C)(C)Cc1ccccc1.[Cl-] [methylbenzethonium chloride] |  | Fold (BLI enhancement, S/B ratio over control): 2.1 fold |
| COc1ccc(/C=C/C(=O)c2ccc(OC)cc2OC)cc1 [metochalcone] | 2.8 fold |  |
| CCOC(=O)Nc1ccc2c(c1)N(C(=O)CCN1CCOCC1)c1ccccc1S2 [moricizine hydrochloride] | 2.3 fold |  |

| SMILES | Fold (BLI enhancement, S/B ratio over control) (human, 40 min, 17 μM) | also measured |
| --- | --- | --- |
| COc1ccccc1N1CCN(CC(O)COc2cccc3ccccc23)CC1 (stereo not drawn) [naftopidil] | 2.4 fold |  |
| O=C1C[C@@H](c2ccc(O)cc2)Oc2cc(O)cc(O)c21 [naringenin] |  | BLI signal enhancement (human, 40 min, 17 μM): 1.9 fold; fold (BLI enhancement), additional previously known ABCG2 inhibitors (human, 40 min, 17 μM): 1.9 fold |
| CCc1nn(CCCN2CCN(c3cccc(Cl)c3)CC2)c(=O)n1CCOc1ccccc1 [nefazodone hydrochloride] | 2.6 fold |  |
| Cc1c(O)cccc1C(=O)N[C@@H](CSc1ccccc1)[C@H](O)CN1C[C@H]2CCCC[C@H]2C[C@H]1C(=O)NC(C)(C)C [nelfinavir mesylate] | 6.1 fold | Fold (BLI enhancement), known compounds (human, 40 min, 17 μM): 6.1 fold |
| COC(=O)C1=C(C)NC(C)=C(C(=O)OCCN(C)Cc2ccccc2)C1c1cccc([N+](=O)[O-])c1 (stereo not drawn) [nicardipine] | 2.9 fold | fold (BLI enhancement), additional previously known ABCG2 inhibitors (human, 40 min, 17 μM): 2.9 fold |
| CO[C@]12C[C@@H](COC(=O)c3cncc(Br)c3)CN(C)[C@@H]1Cc1cn(C)c3cccc2c13 [nicergoline] | 2.0 fold |  |
| COC(=O)C1=C(C)NC(C)=C(C(=O)OCCCN2CCC(c3ccccc3)(c3ccccc3)CC2)[C@H]1c1cccc([N+](=O)[O-])c1 [niguldipine] |  | Fold (BLI enhancement), known compounds (human): 5.9 fold; Fold (BLI enhancement, S/B ratio over control) (human): 5.9 fold |
| COCCOC(=O)C1=C(C)NC(C)=C(C(=O)OC(C)C)C1c1cccc([N+](=O)[O-])c1 (stereo not drawn) [nimodipine] | 2.8 fold | fold (BLI enhancement), additional previously known ABCG2 inhibitors (human, 40 min, 17 μM): 2.8 fold |
| COC(=O)C1=C(C)NC(C)=C(C(=O)OCC(C)C)C1c1ccccc1[N+](=O)[O-] (stereo not drawn) [nisoldipine] | 3.2 fold |  |
| COc1ccc2c(c1OC)C(=O)O[C@@H]2[C@H]1c2c(cc3c(c2OC)OCO3)CCN1C [noscapine hydrochloride] | 2.3 fold |  |
| CC[C@H]1/C=C/C=C/C[C@@H](C)[C@H](O)[C@@](C)(O)C(=O)[C@@H](C)[C@H](O)[C@@H](C)C(=O)[C@@H](C)[C@H](O)[C@@H](C)/C=C/C(=O)O[C@@H]2[C@H](C)[C@H](CC1)O[C@]1(CC[C@H](C)[C@H](C[C@@H](C)O)O1)[C@H]2C [oligomycin] |  | Fold (BLI enhancement, S/B ratio over control) [1]: 5.0 fold; Fold (BLI enhancement), previously unknown compounds [2]: 5.0 fold |
| Cc1c(-c2cnccn2)ssc1=S [oltipraz] | 3.2 fold |  |
| Cc1nccn1CC1CCc2c(c3ccccc3n2C)C1=O (stereo not drawn) [ondansetron hydrochloride] | 2.7 fold |  |
| COC(=O)Nc1nc2ccc([S+]([O-])c3ccccc3)cc2[nH]1 (stereo not drawn) [oxfendazole] | 2.1 fold |  |
| COc1ccc(Cc2nccc3cc(OC)c(OC)cc23)cc1OC [papaverine hydrochloride] |  | Fold (BLI enhancement, S/B ratio over control) (human): 2.0 fold |
| CCCCCCn1c(=O)c2c(ncn2C)n(C)c1=O [pentifylline] | 3.8 fold |  |
| N#Cc1ccc2c(c1)N(CCCN1CCC(O)CC1)c1ccccc1S2 [periciazine] |  | Fold (BLI enhancement), previously unknown compounds (human, 40 min, 17 μM): 6.3 fold |
| OCCN1CCN(CCCN2c3ccccc3Sc3ccc(Cl)cc32)CC1 [perphenazine] | 4.2 fold |  |
| COS(=O)(=O)[O-].C[n+]1c2ccccc2nc2ccccc21 [phenazine methosulfate] |  | Fold (BLI enhancement, S/B ratio over control) [1]: 2.8 fold |
| O=C(O)CCCc1ccccc1 [phenylbutyric acid] |  | Fold (BLI enhancement, S/B ratio over control) [1]: 2.1 fold |
| COc1cc(O)c2c(c1)C(=O)c1cc(C)cc(O)c1C2=O [physcion] | 2.1 fold |  |
| O=c1[nH]c2ccccc2n1C1CCN(CCCC(c2ccc(F)cc2)c2ccc(F)cc2)CC1 [pimozide] | 2.0 fold |  |
| CC(=O)c1ccc2c(c1)N(CCCN1CCC(CCO)CC1)c1ccccc1S2 [piperacetazine] | 5.8 fold | Fold (BLI enhancement), previously unknown compounds (human, 40 min, 17 μM): 5.8 fold |
| COc1ccc(C(=O)c2c(C)n(CCN3CCOCC3)c3ccccc23)cc1 [pravadoline] |  | Fold (BLI enhancement, S/B ratio over control) [1]: 2.7 fold |
